Assay results as given in patent US10738040B2, “Compounds, compositions, and methods for increasing CFTR activity” (Proteostasis Therapeutics, Inc., priority 2014, dated 2020).
Marks after values point to notes of the source that are not given here.

Experiments:
[1] = target: T1, ΔF508-CFTR (Homo sapiens, UniProt P13569, DEL508-508); assay: Ussing measurements (short-circuit current, CFTRinh-172-inhibitable); format: cell-based; settings: compound at 10 uM and VX-809 at 3 uM, relative to VX-809 (3 uM); hBEs homozygous for ΔF508, 24 hours treatment; CFTRinh-172-inhibitable current
T1 construct: Primary lung epithelial cells homozygous for the Cystic Fibrosis-causing ΔF508 mutation were differentiated; endogenous in cells; host or cells: primary human lung (bronchial) epithelial cells homozygous for ΔF508, differentiated at air-liquid interface
T1 sequence (P13569 with tags, fused parts or gaps DEL508-508): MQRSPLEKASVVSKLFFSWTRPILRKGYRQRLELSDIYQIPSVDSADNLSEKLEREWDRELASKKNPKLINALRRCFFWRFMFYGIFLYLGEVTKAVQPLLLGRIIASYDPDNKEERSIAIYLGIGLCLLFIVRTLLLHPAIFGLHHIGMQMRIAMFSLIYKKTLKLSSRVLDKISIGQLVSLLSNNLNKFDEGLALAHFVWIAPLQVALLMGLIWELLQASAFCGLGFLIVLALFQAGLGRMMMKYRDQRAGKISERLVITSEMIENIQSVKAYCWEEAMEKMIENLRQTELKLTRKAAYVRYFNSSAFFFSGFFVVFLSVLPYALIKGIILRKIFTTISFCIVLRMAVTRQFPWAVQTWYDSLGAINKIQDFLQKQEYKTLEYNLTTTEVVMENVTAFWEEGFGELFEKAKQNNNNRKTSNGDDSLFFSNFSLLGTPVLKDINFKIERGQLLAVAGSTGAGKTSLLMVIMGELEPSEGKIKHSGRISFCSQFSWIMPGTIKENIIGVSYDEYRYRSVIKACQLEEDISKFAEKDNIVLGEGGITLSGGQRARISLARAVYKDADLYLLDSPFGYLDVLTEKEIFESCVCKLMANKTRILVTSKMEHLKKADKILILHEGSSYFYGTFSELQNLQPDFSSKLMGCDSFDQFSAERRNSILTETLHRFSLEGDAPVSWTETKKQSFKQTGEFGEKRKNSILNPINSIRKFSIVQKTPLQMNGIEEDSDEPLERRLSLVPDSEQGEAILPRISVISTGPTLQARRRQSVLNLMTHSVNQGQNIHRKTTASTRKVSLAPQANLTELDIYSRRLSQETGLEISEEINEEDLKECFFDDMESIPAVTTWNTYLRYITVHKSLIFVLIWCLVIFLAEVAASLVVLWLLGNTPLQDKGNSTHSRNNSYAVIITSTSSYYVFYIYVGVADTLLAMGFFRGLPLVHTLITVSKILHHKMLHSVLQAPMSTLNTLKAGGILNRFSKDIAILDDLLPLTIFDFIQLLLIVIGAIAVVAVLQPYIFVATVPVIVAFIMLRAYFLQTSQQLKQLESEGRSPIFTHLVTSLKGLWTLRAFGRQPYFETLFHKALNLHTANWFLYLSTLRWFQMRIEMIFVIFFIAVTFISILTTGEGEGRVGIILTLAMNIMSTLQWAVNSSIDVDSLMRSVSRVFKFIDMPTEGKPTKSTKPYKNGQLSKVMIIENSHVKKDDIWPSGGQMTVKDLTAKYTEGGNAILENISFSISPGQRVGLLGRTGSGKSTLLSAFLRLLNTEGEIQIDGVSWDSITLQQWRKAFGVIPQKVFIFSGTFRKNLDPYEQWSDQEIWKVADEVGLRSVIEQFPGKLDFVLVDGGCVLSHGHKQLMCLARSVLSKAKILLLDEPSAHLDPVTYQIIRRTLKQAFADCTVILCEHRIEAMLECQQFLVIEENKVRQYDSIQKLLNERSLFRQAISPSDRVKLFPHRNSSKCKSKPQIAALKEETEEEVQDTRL
Experimental: As discussed above, Ussing measurements can be used to measure CFTR activity. In this method, primary lung epithelial cells (hBEs) homozygous for the Cystic Fibrosis-causing ΔF508 mutation were differentiated for a minimum of 4 weeks in an air-liquid interface on SnapWell filter plates prior to the Ussing measurements. Cells were apically mucus-washed for 30 minutes prior to treatment with compounds. The basolateral media was removed and replaced with media containing the compound of interest diluted to its final concentration from DMSO stocks. Treated cells were incubated at 37° C. and 5% CO2 for 24 hours. At the end of the treatment period, the cells on filters were transferred to the Ussing chamber and equilibrated for 30 minutes. The short-circuit current was measured in voltage clamp-mode (Vhold=0 mV), and the entire assay was conducted at a temperature of 36° C.-36.5° C. Once the voltages stabilized, the chambers were clamped, and data was recorded by pulse readings every 5 seconds. Following baseline current stabilization, the following additions were applied and the changes in current and resistance of the cells was monitored: • 1. Benzamil to the apical chamber to inhibit ENaC sodium channel. • 2. Forskolin to both chambers to activate ΔF508-CFTR by phosphorylation. • 3. Genistein to both chambers to potentiate ΔF508-CFTR channel opening. • 4. CFTRinh-172 to the apical chamber to inhibit ΔF508-CFTR Cl— conductance. The inhibitable current (that current that is blocked by CFTRinh-172) is measured as the specific activity of the ΔF508-CFTR channel, and increases in response to compound in this activity over that observed in vehicle-treated samples are identified as the correction of ΔF508-CFTR function imparted by the compound tested.

[2] = target: T1, ΔF508-CFTR; assay: hBE equivalent current (Ieq) assay; format: cell-based; settings: compound at 10 uM and VX-809 at 1 uM, relative to VX-809 (1 uM); primary lung epithelial cells homozygous for ΔF508, 24 hours treatment; AUC of equivalent chloride current
Experimental: ii. hBE Equivalent Current (Ieq) Assay
Primary lung epithelial cells homozygous for the Cystic Fibrosis-causing ΔF508 mutation were differentiated for a minimum of 4 weeks in an air-liquid interface on Costar 24 well HTS filter plates prior to the equivalent current (Ieq) measurements. Cells were apically mucus-washed for 30 minutes 24 h prior to treatment with compounds. The basolateral media was removed and replaced with media containing the compound of interest diluted to its final concentration from DMSO stocks. Treated cells were incubated at 37° C. and 5% CO2 for 24 hours. At the end of the treatment period, the media was changed to the Ieq experimental solution for 30 minutes before the experiment and plates are maintained in a CO2-free incubator during this period. The plates containing the cells were then placed in pre-warmed heating blocks at 36° ° C.±0.5 for 15 minutes before measurements are taken. The transepithelial voltage (VT) and conductance (GT) were measured using a custom 24 channel current clamp (TECC-24) with 24 well electrode manifold. The Ieq assay measurements were made following additions with standardized time periods: • 1. The baseline VT and GT values were measured for approximately 20 minutes. • 2. Benzamil was added to block ENaC for 15 minutes. • 3. Forskolin plus VX-770 (ivacaftor) were added to maximally activate ΔF508-CFTR for 27 minutes. • 4. Bumetanide was added to inhibit the NaK2Cl cotransporter and shut-off secretion of chloride.
The activity data captured was the area under the curve (AUC) for the traces of the equivalent chloride current. The AUC was collected from the time of the forskolin/VX-770 addition until the inhibition by bumetanide addition. Correction in response to compound treatment was scored as the increase in the AUC for compound-treated samples over that of vehicle-treated samples.

| Structure (SMILES) | Ussing (% VX-809) [1] | Ieq (% VX-809) [2] |
| --- | --- | --- |
| C[C@@H](O)c1cnnn1[C@H]1C[C@H](NC(=O)c2cc(-c3ccccc3)on2)C1 | ## (activity ≥200% of VX-809 (3 uM) with compound at 10 uM and VX-809 at 3 uM) | ** (activity ≥200% of VX-809 (1 uM) with compound at 10 uM and VX-809 at 1 uM) |
| O=C(N[C@H]1C[C@H](n2cc(CO)nn2)C1)c1cc(-c2ccccc2)on1 | ## (activity ≥200% of VX-809 (3 uM) with compound at 10 uM and VX-809 at 3 uM) | ++ * |
| O=C(N[C@H]1C[C@@H](n2nncc2CO)C1)c1cc(-c2ccccc2)on1 | ## (activity ≥200% of VX-809 (3 uM) with compound at 10 uM and VX-809 at 3 uM) | ** (activity ≥200% of VX-809 (1 uM) with compound at 10 uM and VX-809 at 1 uM) |
| C[C@@H](O)c1cnnn1[C@H]1C[C@@H](NC(=O)c2cc(-c3ccccc3)on2)C1 | ## (activity ≥200% of VX-809 (3 uM) with compound at 10 uM and VX-809 at 3 uM) |  |
| O=C(N[C@H]1C[C@@H](n2cc(CO)nn2)C1)c1cc(-c2ccccc2)on1 | ## (activity ≥200% of VX-809 (3 uM) with compound at 10 uM and VX-809 at 3 uM) | ** (activity ≥200% of VX-809 (1 uM) with compound at 10 uM and VX-809 at 1 uM) |
| C[C@@H](O)c1cn([C@H]2C[C@@H](NC(=O)c3cc(-c4ccccc4)on3)C2)nn1 | ## (activity ≥200% of VX-809 (3 uM) with compound at 10 uM and VX-809 at 3 uM) |  |
| O=C(N[C@H]1C[C@H](Cc2nnc(CO)s2)C1)c1cc(-c2ccccc2)on1 | ## (activity ≥200% of VX-809 (3 uM) with compound at 10 uM and VX-809 at 3 uM) |  |
| C[C@H](O)c1nnc(C[C@H]2C[C@H](NC(=O)c3cc(-c4ccccc4)on3)C2)s1 | ## (activity ≥200% of VX-809 (3 uM) with compound at 10 uM and VX-809 at 3 uM) | ** (activity ≥200% of VX-809 (1 uM) with compound at 10 uM and VX-809 at 1 uM) |
| C[C@@H](O)c1nnc(C[C@H]2C[C@H](NC(=O)c3cc(-c4ccccc4)on3)C2)s1 | ## (activity ≥200% of VX-809 (3 uM) with compound at 10 uM and VX-809 at 3 uM) | ** (activity ≥200% of VX-809 (1 uM) with compound at 10 uM and VX-809 at 1 uM) |
| O=C(N[C@H]1C[C@@H](c2nnc(CO)s2)C1)c1cc(-c2ccccc2)on1 | ## (activity ≥200% of VX-809 (3 uM) with compound at 10 uM and VX-809 at 3 uM) |  |
| C[C@@H](O)c1nnc([C@H]2C[C@@H](NC(=O)c3cc(-c4ccccc4)on3)C2)s1 | ## (activity ≥200% of VX-809 (3 uM) with compound at 10 uM and VX-809 at 3 uM) | ** (activity ≥200% of VX-809 (1 uM) with compound at 10 uM and VX-809 at 1 uM) |
| C[C@H](O)c1nnc([C@H]2C[C@@H](NC(=O)c3cc(-c4ccccc4)on3)C2)s1 | ## (activity ≥200% of VX-809 (3 uM) with compound at 10 uM and VX-809 at 3 uM) | ** (activity ≥200% of VX-809 (1 uM) with compound at 10 uM and VX-809 at 1 uM) |
| O=C(N[C@H]1C[C@H](c2nnc(CO)s2)C1)c1cc(-c2ccccc2)on1 | ## (activity ≥200% of VX-809 (3 uM) with compound at 10 uM and VX-809 at 3 uM) | ** (activity ≥200% of VX-809 (1 uM) with compound at 10 uM and VX-809 at 1 uM) |
| O=C(NC1CC(c2nnc(CO)o2)C1)c1cc(-c2ccccc2)on1 (centres unmarked) | ## (activity ≥200% of VX-809 (3 uM) with compound at 10 uM and VX-809 at 3 uM) |  |
| CCCCNC(=O)OCc1cn([C@H]2C[C@H](NC(=O)c3cc(-c4ccccc4)on3)C2)nn1 | ## (activity ≥200% of VX-809 (3 uM) with compound at 10 uM and VX-809 at 3 uM) |  |
| O=C(NC1CC(c2nc(CO)no2)C1)c1cc(-c2ccccc2)on1 (centres unmarked) | ## (activity ≥200% of VX-809 (3 uM) with compound at 10 uM and VX-809 at 3 uM) | ** (activity ≥200% of VX-809 (1 uM) with compound at 10 uM and VX-809 at 1 uM) |

| Structure (SMILES) | Ussing (% VX-809) [1] | Ieq (% VX-809) [2] |
| --- | --- | --- |
| O=C(N[C@H]1C[C@@H](c2noc(CO)n2)C1)c1cc(-c2ccccc2)on1 | ## (activity ≥200% of VX-809 (3 uM) with compound at 10 uM and VX-809 at 3 uM) | ** (activity ≥200% of VX-809 (1 uM) with compound at 10 uM and VX-809 at 1 uM) |
| O=C(N[C@H]1C[C@H](c2noc(CO)n2)C1)c1cc(-c2ccccc2)on1 | ## (activity ≥200% of VX-809 (3 uM) with compound at 10 uM and VX-809 at 3 uM) | ** (activity ≥200% of VX-809 (1 uM) with compound at 10 uM and VX-809 at 1 uM) |
| C[C@@H](O)c1nnc(C[C@H]2C[C@H](NC(=O)c3cc(-c4ccccc4)on3)C2)o1 | ## (activity ≥200% of VX-809 (3 uM) with compound at 10 uM and VX-809 at 3 uM) | ** (activity ≥200% of VX-809 (1 uM) with compound at 10 uM and VX-809 at 1 uM) |
| C[C@@H](O)c1nnc(C2CC(NC(=O)c3cc(-c4ccc(F)cc4)on3)C2)o1 (some centres unmarked) | ## (activity ≥200% of VX-809 (3 uM) with compound at 10 uM and VX-809 at 3 uM) |  |
| CO[C@H](C)c1nnc([C@H]2C[C@@H](NC(=O)c3cc(-c4ccccc4)on3)C2)o1 | ## (activity ≥200% of VX-809 (3 uM) with compound at 10 uM and VX-809 at 3 uM) | * (activity 100-200% of VX-809 (1 uM) with compound at 10 uM and VX-809 at 1 uM) |
| C[C@H](c1nnc([C@H]2C[C@H](NC(=O)c3cc(-c4ccccc4)on3)C2)o1)S(C)(=O)=O | ## (activity ≥200% of VX-809 (3 uM) with compound at 10 uM and VX-809 at 3 uM) | * (activity 100-200% of VX-809 (1 uM) with compound at 10 uM and VX-809 at 1 uM) |
| CC(C)O[C@H](C)c1nnc([C@H]2C[C@H](NC(=O)c3cc(-c4ccccc4)on3)C2)o1 | ## (activity ≥200% of VX-809 (3 uM) with compound at 10 uM and VX-809 at 3 uM) |  |
| CN1CC(c2nnc([C@H]3C[C@H](NC(=O)c4cc(-c5ccccc5)on4)C3)o2)C1 | ## (activity ≥200% of VX-809 (3 uM) with compound at 10 uM and VX-809 at 3 uM) |  |
| O=C(N[C@H]1C[C@H](c2nnc(C3COC3)o2)C1)c1cc(-c2ccccc2)on1 | ## (activity ≥200% of VX-809 (3 uM) with compound at 10 uM and VX-809 at 3 uM) |  |
| O=C(N[C@H]1C[C@H](c2nnc(C3CS(=O)(=O)C3)o2)C1)c1cc(-c2ccccc2)on1 | ## (activity ≥200% of VX-809 (3 uM) with compound at 10 uM and VX-809 at 3 uM) |  |
| O=C(N[C@H]1C[C@H](n2ccnc2)C1)c1cc(-c2ccccc2)on1 | # (activity 100-200% of VX-809 (3 uM) with compound at 10 uM and VX-809 at 3 uM) |  |
| O=C(NC1CCC(n2nncc2CO)C1)c1cc(-c2ccccc2)on1 (centres unmarked) | ## (activity ≥200% of VX-809 (3 uM) with compound at 10 uM and VX-809 at 3 uM) |  |
| O=C(NC1CCC(n2cc(CO)nn2)C1)c1cc(-c2ccccc2)on1 (centres unmarked) | # (activity 100-200% of VX-809 (3 uM) with compound at 10 uM and VX-809 at 3 uM) |  |
| O=C(NC1CCC(c2nnc(CO)o2)C1)c1cc(-c2ccccc2)on1 (centres unmarked) | # (activity 100-200% of VX-809 (3 uM) with compound at 10 uM and VX-809 at 3 uM) |  |
| O=C(NC1CCC(n2nncc2CO)CC1)c1cc(-c2ccccc2)on1 (centres unmarked) | # (activity 100-200% of VX-809 (3 uM) with compound at 10 uM and VX-809 at 3 uM) |  |
| O=C(NC1CCC(n2cc(CO)nn2)CC1)c1cc(-c2ccccc2)on1 (centres unmarked) | # (activity 100-200% of VX-809 (3 uM) with compound at 10 uM and VX-809 at 3 uM) |  |
